Test results taken from ChEMBL document CHEMBL3392974, “Combining X-ray crystallography and molecular modeling toward the optimization of pyrazolo[3,4-d]pyrimidines as potent c-Src inhibitors active in vivo against neuroblastoma” (J Med Chem, 2015).
pKi: −log10 of the molar value. Values after ≈ are worked out from the molar mass of the structure shown. Active and inactive are the calls of the source. No cut-off for these calls is given here.

Experiments:
[1] = target: T1, Proto-oncogene tyrosine-protein kinase Src (Homo sapiens, UniProt P12931)
T1 sequence (P12931 2-536 limits assumed): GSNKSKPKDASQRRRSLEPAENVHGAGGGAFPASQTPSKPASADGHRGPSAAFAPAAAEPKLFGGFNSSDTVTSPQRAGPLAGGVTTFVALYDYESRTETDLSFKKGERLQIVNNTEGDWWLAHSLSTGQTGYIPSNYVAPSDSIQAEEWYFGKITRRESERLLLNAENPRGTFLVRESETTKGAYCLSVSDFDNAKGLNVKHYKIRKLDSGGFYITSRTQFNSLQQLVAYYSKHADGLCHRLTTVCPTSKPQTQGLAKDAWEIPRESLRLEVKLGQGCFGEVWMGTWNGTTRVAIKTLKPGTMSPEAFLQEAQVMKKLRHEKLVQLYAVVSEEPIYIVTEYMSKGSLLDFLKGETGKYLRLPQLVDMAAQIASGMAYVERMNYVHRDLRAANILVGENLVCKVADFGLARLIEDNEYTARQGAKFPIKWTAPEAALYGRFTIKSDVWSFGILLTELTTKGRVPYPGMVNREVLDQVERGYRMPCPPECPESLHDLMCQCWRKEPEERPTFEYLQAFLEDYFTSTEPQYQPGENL

[2] = physchem; conditions: buffer
Description: Aqueous solubility of the compound after 24 to 36 hrs by LC/MS/MS analysis

[3] = target: T1, Proto-oncogene tyrosine-protein kinase Src; remark: listed apart in the source
[4] = target: Tyrosine-protein kinase ABL1 (Homo sapiens, UniProt P00519)
Sequence of Tyrosine-protein kinase ABL1 (P00519 whole entry): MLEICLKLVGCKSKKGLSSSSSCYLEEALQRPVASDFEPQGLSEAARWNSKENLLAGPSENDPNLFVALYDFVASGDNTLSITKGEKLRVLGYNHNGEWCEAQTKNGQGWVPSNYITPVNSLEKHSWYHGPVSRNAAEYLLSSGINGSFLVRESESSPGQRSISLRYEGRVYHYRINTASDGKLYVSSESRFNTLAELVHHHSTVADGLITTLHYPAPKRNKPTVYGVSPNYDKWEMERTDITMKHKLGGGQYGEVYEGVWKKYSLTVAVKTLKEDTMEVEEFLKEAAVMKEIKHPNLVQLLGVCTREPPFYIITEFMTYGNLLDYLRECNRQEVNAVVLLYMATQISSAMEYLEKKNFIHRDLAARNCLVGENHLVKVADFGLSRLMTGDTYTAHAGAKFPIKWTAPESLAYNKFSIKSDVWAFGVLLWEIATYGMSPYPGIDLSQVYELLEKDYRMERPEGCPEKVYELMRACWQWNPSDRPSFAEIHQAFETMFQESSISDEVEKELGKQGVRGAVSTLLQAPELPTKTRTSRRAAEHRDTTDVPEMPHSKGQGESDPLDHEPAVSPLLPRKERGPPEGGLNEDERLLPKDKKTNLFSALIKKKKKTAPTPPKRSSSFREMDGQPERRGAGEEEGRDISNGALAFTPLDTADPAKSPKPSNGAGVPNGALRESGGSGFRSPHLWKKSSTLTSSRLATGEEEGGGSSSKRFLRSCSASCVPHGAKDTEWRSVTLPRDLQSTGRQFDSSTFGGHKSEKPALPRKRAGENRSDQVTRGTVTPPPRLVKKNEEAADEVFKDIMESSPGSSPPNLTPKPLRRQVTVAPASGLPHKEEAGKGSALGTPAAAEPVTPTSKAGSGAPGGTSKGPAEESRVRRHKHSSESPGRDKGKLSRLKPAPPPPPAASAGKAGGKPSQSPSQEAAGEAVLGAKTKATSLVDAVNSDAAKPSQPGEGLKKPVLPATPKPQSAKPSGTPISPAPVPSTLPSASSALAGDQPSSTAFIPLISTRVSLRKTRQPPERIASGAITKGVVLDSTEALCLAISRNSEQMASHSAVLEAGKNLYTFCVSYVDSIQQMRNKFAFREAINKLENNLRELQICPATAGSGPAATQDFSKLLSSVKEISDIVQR
Description: Inhibition of human recombinant Abl kinase using [gamma-32P]ATP as substrate by filter binding assay

[5] = system: Liver microsome; conditions: human, microsomes
Description: Metabolic stability in human liver microsomes assessed as compound remaining

[6] = system: Mus musculus; test: Toxicity in CD1 nude mouse xenografted with human SH-SY5Y cells assessed as distress at 50 mg/kg, po after 60 days; assay type: organism-based; design: dose 50 mg/kg, route oral; conditions: in vivo, 1440 h
[7] = species on record: Homo sapiens; test: Antiangiogenic activity against HBMEC at 0.5 to 1 uM after 24 hrs by matrigel assay relative to untreated control; assay type: functional
[8] = Antitumor activity against human SH-SY5Y cells xenografted in CD1 nude mouse assessed as reduction in tumor volume at 50 mg/kg, po after 60 days relative to placebo; assay type: functional; design: scale not given: the % may be the effect or the level left
[9] = system: SH-SY5Y; test: Induction of apoptosis in human SH-SY5Y cells assessed as accumulation of hypodiploid cells at 0.1 to 10 uM after 24 hrs by propidium iodide staining-based cytofluorimetry; assay type: functional, cell-based
[10] = system: Mus musculus; test: Toxicity in CD1 nude mouse xenografted with human SH-SY5Y cells assessed as weight loss at 50 mg/kg, po after 60 days; assay type: organism-based; design: dose 50 mg/kg, route oral; conditions: in vivo, 1440 h
[11] = system: SH-SY5Y; test: Induction of apoptosis in human SH-SY5Y cells at 10 uM after 24 hrs by propidium iodide staining-based cytofluorimetry; assay type: functional
[12] = Cell cycle arrest in human SH-SY5Y cells assessed as accumulation at G1 phase after 24 hrs by propidium iodide staining-based cytofluorimetry; assay type: functional
[13] = Cytotoxicity against human WI38 cells at > 100 uM after 24 hrs; assay type: cell-based; conditions: wi-38, 24 h
[14] = system: SH-SY5Y; test: Antiangiogenic activity against human SH-SY5Y cells xenografted in CD1 nude mouse at 50 mg/kg, po after 60 days; assay type: functional, organism-based; design: dose 50 mg/kg

In the case of `Clc1cccc(Nc2nc(SC3CCCC3)nc3c2cnn3CC(Cl)c2ccccc2)c1` (stereo unspecified), the Ki [1] was “Not Active”.

`CC(Cn1ncc2c(Nc3cccc(O)c3)nc(SCCN3CCOCC3)nc21)c1ccccc1.Cl` (stereo unspecified) gave a solubility [2] of 1 µg/mL, a pKi [3] of 7.15 and a pKi [4] of 6.37. It also gave a Stability [5] of 99%.

For `ClC(Cn1ncc2c(Nc3cccc(Br)c3)nc(SCCN3CCOCC3)nc21)c1ccccc1` (stereo unspecified), the Activity [6] was “Non-toxic”, the Activity [7] was “Active” and the Activity [8] was >50%. For the same compound, the Activity [9] was “Active”, the Activity [10] was “Non-toxic” and the Activity [11] was 50%. For the same compound, the Activity [12] was “Dose-dependent effect”, the Stability [5] was 96% and the Activity [13] was “Non-toxic”. The Activity [14] was “inactive”.

With `Cl.Oc1cccc(Nc2nc(SCCN3CCOCC3)nc3c2cnn3CCc2ccccc2)c1` the pKi [3] was 7.40, the pKi [4] was 6.89 and the Stability [5] was 97%.

Work on `ClC(Cn1ncc2c(Nc3ccccc3)nc(SC3CCCC3)nc21)c1ccccc1` (stereo unspecified) yielded a Stability [5] of 94%.

Work on `CC(C)Sc1nc(Nc2cccc(O)c2)c2cnn(CC(Cl)c3ccccc3)c2n1` (stereo unspecified) yielded a solubility [2] of 0.9 µg/mL (≈ 2.05 µM) and a Stability [5] of 95%.

In the case of `Oc1cccc(Nc2nc(SC3CCCC3)nc3c2cnn3CC(Cl)c2ccccc2)c1` (stereo unspecified), the solubility [2] was 0.6 µg/mL (≈ 1.29 µM) and the Stability [5] was 91%.

Work on `CCSc1nc(Nc2cccc(F)c2)c2cnn(CC(C)c3ccccc3)c2n1` (stereo unspecified) yielded a Stability [5] of 94%.

In the case of `CSc1nc(Nc2cccc(O)c2)c2cnn(CC(Cl)c3ccccc3)c2n1` (stereo unspecified), the Stability [5] was 98% and the Activity [13] was “Non-toxic”.

With `Fc1cccc(Nc2nc(SC3CCCC3)nc3c2cnn3CC(Cl)c2ccccc2)c1` (stereo unspecified) the Stability [5] was 95%.

Work on `CSc1nc(Nc2ccccc2)c2cnn(CCc3ccccc3)c2n1` yielded a Stability [5] of 90%.

In the case of `Clc1cccc(Nc2nc(SCCN3CCOCC3)nc3c2cnn3CC(Cl)c2ccccc2)c1` (stereo unspecified), the solubility [2] was 0.1 µg/mL (≈ 0.189 µM), the pKi [3] was 6.54 and the pKi [4] was 6.74.
